Measured values published in patent US8017386B2, “Divinyl ether synthase gene and protein, and uses thereof” (priority 2000, dated 2011).

What was measured:
[1] = biological target: T1, CYP74D1 (Solanum lycopersicum, UniProt Q9FPM6)
T1 sequence (Q9FPM6 10-478 limits assumed): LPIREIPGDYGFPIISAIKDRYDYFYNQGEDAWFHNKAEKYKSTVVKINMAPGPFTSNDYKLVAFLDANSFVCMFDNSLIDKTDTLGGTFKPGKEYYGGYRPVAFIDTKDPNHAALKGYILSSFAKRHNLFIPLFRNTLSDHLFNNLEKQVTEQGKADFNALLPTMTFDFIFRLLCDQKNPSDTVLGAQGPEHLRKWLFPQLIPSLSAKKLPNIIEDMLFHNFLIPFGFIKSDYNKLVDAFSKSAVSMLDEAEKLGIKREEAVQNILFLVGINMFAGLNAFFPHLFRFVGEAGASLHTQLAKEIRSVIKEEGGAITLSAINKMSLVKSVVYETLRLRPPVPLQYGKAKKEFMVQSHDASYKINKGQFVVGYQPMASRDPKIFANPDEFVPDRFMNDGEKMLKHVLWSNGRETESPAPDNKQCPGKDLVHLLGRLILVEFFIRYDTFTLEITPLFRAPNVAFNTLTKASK

[2] = biological target: T2, CYP74D1 (Solanum lycopersicum, UniProt Q9FPM6); assay: Kinetic assays with affinity purified CYP74D-6H (decrease in A234); conditions: for estimated turnover rate (kcat): purified CYP74D-6H, assuming the total protein content to be active; for Km: read-out: apparent Km, recombinant DES (summary in description)
T2 sequence (Q9FPM6 whole entry): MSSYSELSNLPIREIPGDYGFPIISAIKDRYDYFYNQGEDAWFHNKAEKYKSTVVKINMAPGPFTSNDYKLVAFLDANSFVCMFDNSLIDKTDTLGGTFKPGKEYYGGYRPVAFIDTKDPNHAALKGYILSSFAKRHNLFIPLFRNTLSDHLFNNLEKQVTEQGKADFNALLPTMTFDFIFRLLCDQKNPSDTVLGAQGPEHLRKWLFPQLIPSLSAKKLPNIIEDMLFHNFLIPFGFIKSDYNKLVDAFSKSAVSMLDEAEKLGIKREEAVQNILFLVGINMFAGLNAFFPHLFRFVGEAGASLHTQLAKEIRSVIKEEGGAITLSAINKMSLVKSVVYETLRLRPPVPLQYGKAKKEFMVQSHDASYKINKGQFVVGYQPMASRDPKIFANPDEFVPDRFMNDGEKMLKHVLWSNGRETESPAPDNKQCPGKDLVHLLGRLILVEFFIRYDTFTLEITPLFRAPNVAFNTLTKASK

[3] = biological target: T2, CYP74D1; remark: listed apart in the source

| Structure (SMILES) | metabolism by extracts containing 6H-CYP74D (in words) [1] | estimated turnover rate (kcat) [2] [s⁻¹] | Km [2] [µM] | metabolized at % of the rate observed for 9-HPOD [3] [%] |
| --- | --- | --- | --- | --- |
| CCCCC/C=C\C=C\[C@H](CCCCCCCC(=O)O)OO [9-HPOD, 9(S)-hydroperoxy-10(E),12(Z)-octadecadienoic acid] | efficiently metabolized | 890 | ~67 |  |
| CC/C=C\C/C=C\C=C\[C@H](CCCCCCCC(=O)O)OO [9-HPOT, 9(S)-hydroperoxy-10(E),12(Z),15(Z)-octadecatrienoic acid] | efficiently metabolized | 500 | ~48 |  |
| CC/C=C\C[C@@H](/C=C/C=C\CCCCCCCC(=O)O)OO [13-HPOT, 13(S)-hydroperoxy-9(Z),11(E),15(Z)-octadecatrienoic acid] | poor substrates |  |  | < 5 |
| CCCCC[C@@H](/C=C/C=C\CCCCCCCC(=O)O)OO [13-HPOD, 13(S)-hydroperoxy-9(Z),11(E)-octadecadienoic acid] | poor substrates |  |  |  |
